These are literature values, as cited in patent publication US12686665B2, “Bicyclic fused ring derivative or salt thereof and pharmaceutical composition comprising same” (YUHAN CORPORATION, priority 2021, dated 2026).

Series [1] concerns mouse bleomycin-mediated lung injury model. Conditions: cited from earlier work.
The subject of series [2] is UUO animal model causing kidney disease. Conditions: cited from earlier work.
Series [3] has as its system liver and cardiacfibrosis. Conditions: in vivo; cited from earlier work.
Series [4] concerns NASH patients with advanced liver fibrosis and liver cirrhosis. Conditions: after 4 years of the treatment; cited from earlier work.

For the molecule `NCc1cc(Oc2cccc(C(=O)N3C[C@@H](O)[C@H](F)C3)c2)nc(C(F)(F)F)c1` [PAT-1251], the fibrosis entry in series [1] is “significantly reduced fibrosis”.

For the molecule `NC/C=C(\F)CS(=O)(=O)c1cccc2cccnc12` [PXS-5505], the renal fibrosis result in series [2] was “significantly reduced renal fibrosis”.

As to `N#CCCN` [β-Aminopropionitrile], in series [3], the “liver and cardiac fibrosis” value was “improve liver and cardiacfibrosis”.

B1: Simtuzumab: a monoclonal antibody against LOXL2 (antibody, chains of the INN, looked up, V domains shown)
VH: QVQLVQSGAEVKKPGASVKVSCKASGYAFTYYLIEWVRQAPGQGLEWIGVINPGSGGTNYNEKFKGRATITADKSTSTAYMELSSLRSEDTAVYFCARNWMNFDYWGQGTTVTVSS
VL: DIVMTQTPLSLSVTPGQPASISCRSSKSLLHSNGNTYLYWFLQKPGQSPQFLIYRMSNLASGVPDRFSGSGSGTDFTLKISRVEAEDVGVYYCMQHLEYPYTFGGGTKVEIK
B1: the histological efficacy entry in series [4] is listed as “failure to prove histological efficacy”.
